The results in this text go back to patent US6586633B1, “Amine derivatives” (Pola Chemical Industries, Inc., priority 2001, dated 2003).

Experiment in all cases: Measurement of antifungal activity (minimum inhibitory concentration), agar dilution
Common to all, as to format: cell-based

For assay [1], the system named is M. canis TIMM0760. To be noted: Sabouraud's agar, one week at 27° C.; for MIC: Microsporum canis, 168 h, read-out: MIC value (minimum compound concentration that definitely inhibited any visible growth). How it is done: (§1) Measurement of Antifungal Activity (Measurement of Minimum Inhibitory Concentration)
(§2) Antifungal activity of representative compounds of the present invention against dermatophytes was investigated.
(§3) Briefly, strains of dermatophytes to be tested were grown on slant media prepared with Sabouraud's agar (product of Nissuiseiyaku; pepton 1.0%, glucose 4.0%, agar 1.5%, pH 5.9) at 27° C. for two weeks, so as to allow sufficient production of conidiospores. Subsequently, sterilized saline solution containing 0.05% (wt/vol) TWEEN 80 was added thereto, and while the surface of the each medium was scraped with a platinum loop, the conidiospores were deaggregated and suspended in the saline solution. The suspension was filtered through a double face sterilized gauze sheet so as to remove agar and hypha pellets. The filtrate was diluted with a saline solution so as to make the concentration of the conidiospores decrease to 10^6/ml by use of a cytometer, and the resultant dilute filtrate served as a test dermatophytes solution. Meanwhile, a stock solution was prepared by adding 1 ml of dimethylsulfoxide to 10 mg of a compound to be tested. An aliquot (500 μl) of the stock solution was combined with dimethylsulfoxide (500 μl), to thereby prepare a 2-fold dilute solution. Dilution was similarly repeated until 13 different dilute solutions ranging from 10 to 0.0025 mg/ml (concentrations of the ultimate test system: 100-0.025 μg/ml) were obtained. 100 μl each of the diluted solutions of the test compound was dispensed into the sterilized petri dish. A Sabouraud's agar (pepton 1.0%, glucose 4.0%, agar 1.5%, pH 5.9; 10 ml), which had been sterilized and dissolved, was added thereto, and the mixture was thoroughly mixed and solidified. Next, the above-prepared test dermatophytes solution was planted in amounts of 5 μl by use of a microplanter.

The subject of assay [2] is M. gypseum IF08231. Conditions: H. gypseum IF08231 (Table 1), Sabouraud's agar, one week at 27° C.; for MIC: Nannizzia gypsea, 168 h, read-out: MIC value (minimum compound concentration that definitely inhibited any visible growth). How it is done:
as §1, §2, §3

For assay [3], the system named is T. mentagrophytes IF05811. Conditions: Sabouraud's agar, one week at 27° C.; for MIC: Trichophyton mentagrophytes, 168 h, read-out: MIC value (minimum compound concentration that definitely inhibited any visible growth). How it is done:
as §1, §2, §3

Assay [4] concerns T. mentagrophytes IF07552. Conditions: Sabouraud's agar, one week at 27° C.; for MIC: Trichophyton mentagrophytes, 168 h, read-out: MIC value (minimum compound concentration that definitely inhibited any visible growth). The protocol:
as §1, §2, §3

Assay [5] has as its system T. mentagrophytes TIMM1177. To be noted: Sabouraud's agar, one week at 27° C.; for MIC: Trichophyton mentagrophytes, 168 h, read-out: MIC value (minimum compound concentration that definitely inhibited any visible growth). The protocol: as §1, §2, §3
The test system of assay [6] is T. mentagrophytes TIMM1189. To be noted: Sabouraud's agar, one week at 27° C.; for MIC: Trichophyton mentagrophytes, 168 h, read-out: MIC value (minimum compound concentration that definitely inhibited any visible growth). The protocol: as §1, §2, §3
In assay [7] the test system is T. rubrum IF05808. To be noted: Sabouraud's agar, one week at 27° C.; for MIC: Trichophyton rubrum, 168 h, read-out: MIC value (minimum compound concentration that definitely inhibited any visible growth). How it is done: as §1, §2, §3
Assay [8] deals with T. rubrum IF09185. Conditions: Sabouraud's agar, one week at 27° C.; for MIC: Trichophyton rubrum, 168 h, read-out: MIC value (minimum compound concentration that definitely inhibited any visible growth). The protocol:
as §1, §2, §3

The subject of assay [9] is T. violaceum TIMM1264. To be noted: Sabouraud's agar, one week at 27° C.; for MIC: Trichophyton violaceum, 168 h, read-out: MIC value (minimum compound concentration that definitely inhibited any visible growth). The protocol:
as §1, §2, §3

Structures are written as SMILES.

Take `C=C(C)c1cccc(CN(C)C/C=C/C#CC(C)(C)C)c1.Cl` [Compound 3, trans-N-(6,6-Dimethyl-2-hepten-4-ynyl)-N-methyl-(3-isopropenylbenzyl)amine Hydrochloride]: the MIC in [1] is 0.1 µg/mL; in assay [2], 0.39 µg/mL; in assay [3], 0.1 µg/mL; in assay [4], 0.2 µg/mL; in assay [5], 0.1 µg/mL; in assay [6], 0.2 µg/mL. In addition, the MIC in assay [7], in assay [8] and in [9] was 0.1 µg/mL in each case.
Regarding `C=Cc1cccc(CN(C)C/C=C/C#CC(C)(C)C)c1.Cl` [Compound 10, trans-N-(6,6-Dimethyl-2-hepten-4-ynyl)-N-methyl-(3-vinylbenzyl)amine Hydrochloride], the MIC came to 0.2 µg/mL in [1]; 0.78 µg/mL in assay [2]; 0.39 µg/mL in assay [3]; 0.39 µg/mL in [4]; 0.39 µg/mL in assay [5]; 0.39 µg/mL in [6]. The figures for the MIC in assay [7], in assay [8] and in assay [9] were 0.39 µg/mL, 0.39 µg/mL and 0.78 µg/mL, respectively.
Regarding `CC(C)=Cc1cccc(CN(C)C/C=C/C#CC(C)(C)C)c1.Cl` [Compound 12, trans-N-(6,6-Dimethyl-2-hepten-4-ynyl)-N-methyl-[3-(2-methyl-1-propenyl)benzyl]amine Hydrochloride], the MIC was 0.2 µg/mL in assay [1]; 0.78 µg/mL in assay [2]; 0.39 µg/mL in assay [3]; 0.39 µg/mL in assay [4]; 0.78 µg/mL in assay [5]; 0.39 µg/mL in assay [6]. Moreover, the MIC in [7] is 0.39 µg/mL; in [8], 0.2 µg/mL; in assay [9], 0.39 µg/mL.
As to `C=C(C)c1cc(C)cc(CN(C)C/C=C/C#CC(C)(C)C)c1.Cl` [Compound 19, trans-N-(6,6-Dimethyl-2-hepten-4-ynyl)-N-methyl-(3-isopropenyl-5-methylbenzyl)amine Hydrochloride], the MIC amounted to 0.1 µg/mL in [1]; 0.2 µg/mL in assay [2]; 0.1 µg/mL in [3]; 0.05 µg/mL in assay [4]; 0.1 µg/mL in assay [5]; 0.05 µg/mL in assay [6]. In addition, the MIC in assay [7], in assay [8] and in [9] was 0.1 µg/mL throughout.
On to `C=C(CC)c1cccc(CN(C)C/C=C/C#CC(C)(C)C)c1.Cl` [Compound 25, trans-N-(6,6-Dimethyl-2-hepten-4-ynyl)-N-methyl-[3-(1-ethylvinyl)benzyl]amine Hydrochloride], for which the MIC in assay [1] is 0.39 µg/mL; in assay [2], 3.12 µg/mL; in [3], 0.78 µg/mL; in [4], 0.78 µg/mL; in assay [5], 0.78 µg/mL; in assay [6] it was 0.78 µg/mL. Besides, the MIC in assay [7], in assay [8] and in assay [9] was 0.78 µg/mL each time.
As for `C/C=C(/C)c1cccc(CN(C)C/C=C/C#CC(C)(C)C)c1.Cl` [Compound 27, trans-, cis-N-(6,6-Dimethyl-2-hepten-4-ynyl)-N-methyl-[3-(1-methyl-1-propenyl)benzyl]amine Hydrochloride], the “MIC value (minimum compound concentration that definitely inhibited any visible growth)” value in [1] was 0.78 µg/mL; in [2] it was 6.25 µg/mL; in [3] it was 1.56 µg/mL; in assay [4], 1.56 µg/mL; in assay [5] it was 1.56 µg/mL; in assay [6] it was 1.56 µg/mL. In addition, the “MIC value (minimum compound concentration that definitely inhibited any visible growth)” value in assay [7], in assay [8] and in assay [9] was 1.56 µg/mL throughout.
For the compound `C=C(C)c1ccccc1CN(C)C/C=C/C#CC(C)(C)C.Cl` [Compound 39, trans-N-(6,6-Dimethyl-2-hepten-4-ynyl)-N-methyl-(2-isopropenylbenzyl)amine Hydrochloride], the MIC in assay [1] amounted to 6.25 µg/mL; in assay [2] it was 12.5 µg/mL; in assay [3], 6.25 µg/mL; in assay [4], 6.25 µg/mL; in assay [5] it was 6.25 µg/mL; in [6] it was 6.25 µg/mL. For the same compound, the MIC came out at 3.12 µg/mL in assay [7], 3.12 µg/mL in assay [8] and 12.5 µg/mL in assay [9].
In the case of `C=C(C)c1cccc(CN(CC)C/C=C/C#CC(C)(C)C)c1.Cl` [Compound 45, trans-N-(6,6-Dimethyl-2-hepten-4-ynyl)-N-ethyl-(3-isopropenylbenzyl)amine Hydrochloride], the MIC in assay [1] is 0.2 µg/mL; in assay [2], 0.39 µg/mL; in [3], 0.39 µg/mL; in assay [4], 0.39 µg/mL; in [5] it was 0.39 µg/mL; in assay [6], 0.39 µg/mL. The MIC in assay [7], in assay [8] and in assay [9] was 0.39 µg/mL in each case.
Take `C=C(C)c1cccc(CN(C)CC=Cc2ccccc2)c1.Cl` [Compound 48, N-Cinnamyl-N-methyl-(3-isopropenylbenzyl)amine Hydrochloride]: the MIC in assay [1] amounted to 1.56 µg/mL; in assay [2] it was 6.25 µg/mL; in assay [3] it was 6.25 µg/mL; in assay [4], 3.12 µg/mL; in assay [5], 6.25 µg/mL; in assay [6], 6.25 µg/mL. For the same compound, the MIC is 1.56 µg/mL in assay [7], 1.56 µg/mL in [8] and 6.25 µg/mL in assay [9].
On to `C=C(C)c1cccc(CN(C)C/C=C/C#CC(C)(C)C)c1C.Cl` [Compound 52, trans-N-(6,6-Dimethyl-2-hepten-4-ynyl)-N-methyl-(3-isopropenyl-2-methylbenzyl)amine Hydrochloride], for which the MIC in [2] is 3.12 µg/mL; in [3] it was 12.5 µg/mL; in assay [4], 12.5 µg/mL; in assay [5] it was 12.5 µg/mL; in assay [6], 12.5 µg/mL; in assay [7] it was 12.5 µg/mL. Besides, the MIC in assay [8] and in assay [9] was 12.5 µg/mL in each case.
Regarding `C=C(C)c1cc(F)cc(CN(C)C/C=C/C#CC(C)(C)C)c1.Cl` [Compound 64, trans-N-(6,6-Dimethyl-2-hepten-4-ynyl)-N-methyl-(3-fluoro-5-isopropenylbenzyl)amine Hydrochloride], the MIC in assay [1] turned out to be 0.2 µg/mL; in assay [2] it was 0.39 µg/mL; in assay [3], 0.1 µg/mL; in [4], 0.1 µg/mL; in [5] it was 0.1 µg/mL; in assay [6], 0.1 µg/mL. The MIC came to 0.1 µg/mL in assay [7], 0.1 µg/mL in assay [8] and 0.2 µg/mL in [9].
Turning to `C=C(C)c1cc(CN(C)C/C=C/C#CC(C)(C)C)ccc1C.Cl` [Compound 74, trans-N-(6,6-Dimethyl-2-hepten-4-ynyl)-N-methyl-(3-isopropenyl-4-methylbenzyl)amine Hydrochloride], the MIC is 1.56 µg/mL in assay [1]; 12.5 µg/mL in [2]; 6.25 µg/mL in [3]; 12.5 µg/mL in [4]; 12.5 µg/mL in assay [5]; 6.25 µg/mL in assay [6]. Further, the MIC in assay [7] is 1.56 µg/mL; in assay [8], 3.12 µg/mL; in assay [9] it was 6.25 µg/mL.
